Converted amounts (≈) assume the structure as drawn. Bridge positions count the residues as written; N and C are the ends. Square brackets hold non-standard residues; d marks the D form. Peptide text beside a SMILES is read from it. * marks the point of attachment. X1 = CC[C@H](C)CCCCC(=O)*; Dab = NCC[C@H](N)C(=O)O
Tests used:
P. aeruginosa [1] = conditions: P. aeruginosa 40b strain characterisation; cited from earlier work
S. aureus ATTC 6538 = assay: microbe, parasite or virus in culture; assay type: cell-based, Staphylococcus aureus; conditions: S. aureus ATTC 6538; Mueller Hinton Broth, 18–20 h
Protocol: (§1) MICs were measured after 18–20 h of incubation in sterile 96-well plates (Corning Costar 3598 microtiter plates) in Mueller Hinton Broth (MHB) culture medium, (Difco, USA), according to well known in vitro protocols. Bacterial strains in Table 1 were: P. aeruginosa ATTC 9027, E. coli ATTC 8739, S. aureus ATTC 6538, and E. faecalis ATTC 29212. MICs shown in table 4 were performed by Mary Conrad at Cubist Pharmaceuticals (Lexington, MA) in non-binding surface plates.

P. aeruginosa ATTC 9027 = assay type: cell-based, Pseudomonas aeruginosa; conditions: P. aeruginosa ATTC 9027; Mueller Hinton Broth, 18–20 h
Protocol: as §1

E. coli ATTC 8739 = assay type: cell-based, Escherichia coli; conditions: E. coli ATTC 8739; Mueller Hinton Broth, 18–20 h
Protocol: as §1

E. coli = tested on: E. coli
Protocol: (§2) Strains of E. coli and P. aeruginosa with resistance to quinolones and carbapenems as well as multi-drug-resistant bacteria were tested.
as §1

P. aeruginosa [2] = tested on: P. aeruginosa
Protocol: as §2, §1

E. coli (ATCC 25922) [3] = assay: Flow cytometry (PI membrane permeability, BOX membrane potential), E. coli; assay type: cell-based, Escherichia coli; conditions: 0.5 μg/mL
Protocol: The mechanism of action at the membrane level of our best candidate was studied using flow cytometry. To assess membrane permeability, a propidium iodide (PI) probe was used[43][44]. The fluorescence conferred by this probe is generally associated with cells that have lost their membrane integrity. The effect on membrane potential was evaluated with bis-(1,3-dibutylbarbituric acid) trimethine oxonol (BOX). Membrane depolarization leads to the incorporation of this anionic dye into the cell where it binds to lipid-rich intracellular compounds, resulting in an increase in fluorescence.
(§3) An overnight culture (12 to 16 h) of S. aureus (ATCC 29213) or E. coli (ATCC 25922) in Tryptic Soy Broth (TSB) was grown at 37 °C and 400 μL were added in 50 mL of tryptone water (∼10^7 bacteria/mL). The bacterial suspension was split into aliquots of 4-5 mL and treated with the peptides (at the MIC) for different incubation times at room temperature. Cells were collected by centrifugation (10000 rpm, 20 min) and resuspended in 1 mL of filtered Ringer’s solution.
A stock solution of propidium iodide (PI, 1 mg/mL, Molecular Probes) and bis-(1,3-dibutylbarbituric acid) trimethine oxonol (BOX, 250 μM, Sigma Aldrich) was prepared in distilled water. Portions (10 μL and 2 μL, respectively) were added to aliquots of cells (100 μL of each sample in 1 mL of Ringer’s solution) to give a final concentration of 10 μg/mL of PI and 0.5 μM for BOX.
Flow cytometric measurements were performed on a Gallios multi-colour flow cytometer instrument (Beckman Coulter, Inc, Fullerton, CA) set up with the 3-lasers 10 colors standard configuration. Excitation was done using a blue (488 nm) laser. Forward scatter (FS), side scatter (SS), green fluorescence (525/40 nm) from BOX and red fluorescence (620/30 nm) emitted by PI were collected using logarithmic scales. FS was used as the discriminating parameter. The single-cell bacterial population was selected on a forward-side scatter plot. Fluorescence was presented in a dot plot of BOX vs. PI. Three regions were defined on this graph according to the controls: depolarized, permeabilized and non-affected cells. Control cells (non-stained and single stained populations) were used to define these regions. 25,000 cells defined according to their scatter parameters were counted in each sample.

E. coli (ATCC 25922) [4] = assay: Reduction of viability by plate count, E. coli; assay type: cell-based, Escherichia coli; conditions: 0.5 μg/mL
Protocol: as §3

E. coli (ATCC 25922) [5] = assay: Transmission electron microscopy of treated E. coli; assay type: cell-based, Escherichia coli; conditions: 120 min at 0.5 μg/mL
Protocol: An overnight culture (12 to 16 h) of S. aureus (ATCC 29213) or E. coli (ATCC 25922) in Tryptic Soy Broth (TSB) was grown at 37 °C and 500 μL were added in 50 mL of tryptone water (∼10^8 bacteria/mL). […] Cells were collected by centrifugation (10000 rpm, 20 min).
Samples were fixed with 2.5% glutaraldehyde in phosphate buffer for 2 h at 4 °C, then washed with the same buffer and post fixed with 1% osmium tetroxide in buffer containing 0.8% potassium ferricyanide at 4 °C. The samples were then dehydrated for 1 hour in acetone and infiltrated in a gradded series of Epon resin (Ted Pella Inc., USA) during 2 days, and finally embedded in fresh Epon resin and polymerised at 60 °C during 48 hours.
Ultrathin sections were obtained using a Leica Ultracut UCT ultramicrotome (Leica, Vienna) and mounted on Formvar-coated copper grids. Sections were stained with 2% aqueous uranyl acetate and lead citrate and examined in a JEM-1010 electron microscope (Jeol, Japan).

CD-1 mice = conditions: reported value, no reference given; cited from earlier work
[6] = target: alternative NADH dehydrogenase; design: method as in PMID 19564154, PMID 24169795; conditions: Mycobacterium smegmatis; cited from earlier work
[7] = target: malate:quinone oxidoreductase; design: method as in PMID 19564154; conditions: Mycobacterium smegmatis; cited from earlier work
[8] = design: method as in PMID 22908162, PMID 24733472; conditions: after iv administration, after 6 h; cited from earlier work
[9] = resistant to nalidixic acid, cotrimoxazole and ampicillin

Q: Which “MIC, resistance profile of P. aeruginosa 40b” value (P. aeruginosa [1]) does the source give for `C[C@@H](O)[C@H]1C(=O)N2C(C(=O)O)=C(SCCN=CN)C[C@H]12` [Imipenem] here?
A: Its value is “imipenem (MIC 32 mg/L)”.

Q: What does the source list for `CC[C@H](C)CCCCC(=O)N[C@@H](CCN)C(=O)N[C@H](C(=O)N[C@@H](CCN)C(=O)N[C@H]1CCNC(=O)[C@H]([C@@H](C)O)NC(=O)[C@H](CCN)NC(=O)[C@H](CCN)NC(=O)[C@H](CC(C)C)NC(=O)[C@@H](Cc2ccccc2)NC(=O)[C@H](CCN)NC1=O)[C@@H](C)O` [Polymyxin B] (X1-[Dab]T[Dab][Dab][Dab][dF]L[Dab][Dab]T; lactam 4-C; N-terminus assumed)?
A: MIC S. aureus (S. aureus ATTC 6538): >32 µg/mL; MIC P. aeruginosa (P. aeruginosa ATTC 9027): 2 µg/mL (≈ 1.66 µM); MIC E. coli (E. coli ATTC 8739): 1 µg/mL (≈ 0.831 µM); MIC E. coli NDM-1 (E. coli; highly-resistant, New Delhi metallo-beta-lactamase gene): 0.5 µg/mL (≈ 0.415 µM); MIC E. coli VAL 5 (E. coli; resistant to nalidixic acid): 0.25 µg/mL (≈ 0.208 µM); MIC E. coli MAC 21a (E. coli; [9]): 0.25 µg/mL (≈ 0.208 µM); MIC E. coli VAL 10 (E. coli; [9]): 0.25 µg/mL (≈ 0.208 µM); MIC P. aeruginosa 38a (P. aeruginosa [2]; resistant to ceftazidime, ciprofloxacin, imipenem, piperacillin-tazobactam): 1 µg/mL; MIC P. aeruginosa 40b (P. aeruginosa [2]; resistant to imipenem): 2 µg/mL (≈ 1.66 µM); % of stained cells PI (E. coli (ATCC 25922) [3]; 5 min): 11%; % of stained cells BOX (E. coli (ATCC 25922) [3]; 10 min): 35%; % of stained cells PI (E. coli (ATCC 25922) [3]; 10 min): 20%; % of stained cells BOX (E. coli (ATCC 25922) [3]; 15 min): 17%; % of stained cells PI (E. coli (ATCC 25922) [3]; 15 min): 60%; % of stained cells BOX (E. coli (ATCC 25922) [3]; 30 min): 13%; % of stained cells PI (E. coli (ATCC 25922) [3]; 30 min): 68%; % of stained cells BOX (E. coli (ATCC 25922) [3]; 60 min): 23%; % of stained cells PI (E. coli (ATCC 25922) [3]; 60 min): 57%; % of stained cells BOX (E. coli (ATCC 25922) [3]; 120 min): 17%; % viability reduction (E. coli (ATCC 25922) [4]; 5 min): 0%; % viability reduction (E. coli (ATCC 25922) [4]; 10 min): 20%; % viability reduction (E. coli (ATCC 25922) [4]; 15 min): 34%; % viability reduction (E. coli (ATCC 25922) [4]; 30 min): 65%; % viability reduction (E. coli (ATCC 25922) [4]; 60 min): 87%; % viability reduction (E. coli (ATCC 25922) [4]; 120 min): 98%; Effect on cell morphology (TEM) (E. coli (ATCC 25922) [5]): numerous protrusions were observed at the outer cell membrane and even some completely lysed membranes; LD50 reported for subcutaneous administration (CD-1 mice): 59.5 mg/kg; IC50 alternative NADH dehydrogenase [6]: 1.6 µg/mL (≈ 1.33 µM); IC50 malate:quinone oxidoreductase [7]: 4.3 µg/mL (≈ 3.57 µM); kidney concentration relative to serum concentration [8]: more than 30 times
